Measurements published in BigSolDB 2.1.

O=c1cc(-c2ccc(O)c(O)c2)oc2cc(O)cc(O)c12
solubility (mole fraction)
Conditions | 273.2 K | 283.2 K | 293.2 K | 303.2 K | 313.2 K | 323.2 K
in ethanol | 0.000755 | 0.00117 | 0.00174 | 0.00205 | 0.00271 | 0.00318
in water | 2.06e-07 | 2.72e-07 | 3.49e-07 | 4.68e-07 | 7.3e-07 | 9.48e-07
